# Source: patent US12687780B2, “Curable water-based composition, active-energy-ray-curable water-based composition, active-energy-ray-curable water-based ink, stored container, two-dimensional or three-dimensional image forming apparatus, two-dimensional or three-dimensional image forming method, cured product, and decorated body” (Ricoh Company, Ltd., priority 2021, dated 2026)
# Assay: Skin sensitivity: stimulation index (SI) value by the LLNA method (OECD test guideline 429)
# Type: in vivo
# Settings: stimulation index of the single compound (raw material)
row,SI value,Compound
1,(see Synthesis example 2) SI = 1.01,"C=CC(=O)NCC(=O)OC [Example A1-2, N-acryloylglycine methyl ester]"
2,(see Synthesis example 3) SI = 1.21,"C=CC(=O)NCC(=O)OCC [Example A1-3, N-acryloylglycine ethyl ester]"
3,(see Synthesis example 5) SI = 1.45,"C=CC(=O)NCCCC(=O)OC [Example A1-5, N-acryloyl-4-butyric acid methyl ester]"
4,(see Synthesis example 6) SI = 1.37,"C=CC(=O)NC(C)C(=O)OC (stereo not shown) [Example A1-6, N-acryloyl alaninemethyl ester]"
5,(see Synthesis example 7) SI = 1.00,"C=CC(=O)N(C)CC(=O)OC [Example A2-1, N-acryloyl-N-methyl glycine methyl ester]"
6,(see Synthesis example 10) SI = 1.70,"C=CC(=O)N1CCC(C(=O)OCC)CC1 [Example A2-5, ethyl N-acryloylpiperidine-4-carboxylate]"
7,SI = 1.23,C=CC(=O)NCCNC(=O)C=C [Example B1-2]

row,Compound,SI value
1,C=CC(=O)NCNC(=O)C=C [Example B1-1],SI = 1.08
2,C=CC(=O)NCCN(CCNC(=O)C=C)C(=O)C=C [Example B1-3],“FOM-03007” obtained from FUJIFILM Corporation SI = 1.44
3,C=CC(=O)NCCN(CCN(CCNC(=O)CC)C(=O)C=C)C(=O)C=C [Example B1-4],“FOM-03009” obtained from FUJIFILM Corporation SI = 1.52
